Measured values published in patent publication US10450260B2, “NO- and H2S-releasing compounds” (RESEARCH FOUNDATION OF THE CITY UNIVERSITY OF NEW YORK, priority 2011, dated 2019).

How the values were obtained:
[1] = system: eleven different cancer cell lines; experiment: MTT cell growth inhibition, all cell lines of the panel; type: cell-based; conditions: Homo sapiens; 24 hr; colon, breast, pancreas, lung, prostate, leukemia cancer cell lines of Table 1
Protocol: HT-29, SW-480 and HCT-15 human colon adenocarcinoma, MIA PaCa-2 and BxPC-3 human pancreatic cancer, LNCAP human prostate cancer, A549 human lung cancer, MCF-7 (estrogen receptor positive), MDA-MB 231 and SK-BR-3 (estrogen receptor negative) human breast cancer, and Jurkats human leukemia cell lines were obtained from American Type Tissue Collection (Manassas, Va.). All cells lines were grown as monolayers except for the Jurkats which were grown in suspension. […] Single cell suspensions were obtained by trypsinization (0.05% trypsin/EDTA), and cells were counted using a hemocytometer. Viability was determined by the trypan blue dye exclusion method.
Cell growth inhibitory effect of NOSH compounds were measured using a colorimetric MTT assay kit (Roche, Indianapolis, Ind.). […] The absorbance of the plates was measured on an ELISA reader at a wavelength of 570 nm. […]
HT-29, SW-480 and HCT-15 human colon adenocarcinoma, MIA PaCa-2 and BxPC-3 human pancreatic cancer, LNCAP human prostate cancer, A549 and H383 human lung cancer, MCF-7, MDA-MB 231 and SK-BR-3 human breast cancer and Jurkat T cell human leukemia cell lines were obtained from American Type Tissue Collection (Manassas, Va.) All cells lines were grown as monolayers except for the Jurkat T cells which were grown as suspension culture. […] Viability was determined by the trypan blue dye exclusion method. […]

[2] = system: HT-29 colon cancer cells; experiment: Cell proliferation, PCNA expression; type: cell-based, human; conditions: 24 hours
Protocol: (§1) Growth inhibition was measured using a colorimetric MTT assay kit (Roche, Indianapolis, Ind.). Proliferation (PCNA) was assessed using an ELISA kit from Calbiochem, (La Jolla, Calif.). Cell cycle phase distributions and apoptosis of control and treated cells were determined as previously described. All methods are described in Chattopadhyay et al., Biochemical Pharmacology, 2012, 83(6), 715-722.

[3] = system: HT-29 colon cancer cells; experiment: Cell cycle analysis, PI staining and flow cytometry; type: cell-based, human
Protocol: as §1

[4] = system: HT-29 colon cancer cells; experiment: Apoptosis, Annexin V staining and flow cytometry; type: cell-based, human
Protocol: as §1

[5] = system: MCF-7 (ER+) breast cancer cell xenograft; experiment: MCF-7 xenograft in athymic nude mice; type: in vivo, mouse
Source text: Male athymic nude (NU/NU) mice, age 5 weeks, were purchased from Charles River Laboratories, Inc., (Wilmington, Mass.) and were housed according to institutional and NIH guidelines.
Human colon (SW480), Breast (MCF-7, MDA-MB-231), and pancreas (MIA PaCa2) cancer cells (2×10^6) suspended in Matrigel (BD Biosciences, San Jose, Calif.) 50% v/v were inoculated subcutaneously in the right flanks of each mouse (10 mice per group) using a 1-mL syringe and 22-gauge needles. After 10 days the animals from each implanted cell line were randomly divided into 2 groups (N=5/group) and gavaged daily with either vehicle (1% methylcelloluse) or NOSH-naproxen (100 mg/kg) or NOSH (100 mg/kg), the ADT-OH-butyl nitrate compound that releases H2S and NO, in the case of colon cancer xenografts; or NOSH-aspirin (100 mg/kg body weight) in the breast and pancreatic cancers groups. The tumor size was measured every other day using electronic calipers, the tumor volumes were calculated using the following formula: length×width^2/2. The weights of the mice were also recorded every 3 days. Twenty-seven (27) to thirty (30) days post inoculation, the mice were sacrificed, the tumors collected, weighed, and photographed.

Row | Compound | IC50 [1] | reduction of PCNA expression ([2]; 0.5×IC50 (25 nM)) | reduction of PCNA expression ([2]; 1×IC50 (50 nM)) | reduction of PCNA expression ([2]; 2×IC50 (100 nM)) | cell population in G2/M phase ([3]; 1×IC50, 24 hours, control 26.9±2.2) | cell population in S phase ([3]; 1×IC50, 24 hours, control 30.2±2.3%) | cell population in G0/G1 phase ([3]; 1×IC50, 24 hours, control 42.9±2%) | cell population in G0/G1 phase ([3]; 2×IC50, 24 hours) | cell population in G2/M phase ([3]; 2×IC50, 24 hours) | cell population in S phase ([3]; 2×IC50, 24 hours) | cells in early apoptotic phase ([4]; 0.5×IC50, 24 hours) | cells in early apoptotic phase ([4]; 1×IC50, 24 hours) | cells in early apoptotic phase ([4]; 2×IC50, 24 hours) | mean tumor volume ([5]; 100 mg/kg daily gavage, end of study, control 935±93) | reduction of tumor mass ([5]; 100 mg/kg daily, day 27, vs control) | average tumor mass ([5]; 100 mg/kg daily, day 27, control 0.46±0.056) | mean reduction of tumor volume ([5]; 100 mg/kg daily, vs control)
1 | CC(=O)Oc1ccccc1C(=O)O [ASA, aspirin, reference compound] | > 5 mM | – | – | – | – | – | – | – | – | – | – | – | – | – | – | – | –
2 | O=C(CCCO[N+](=O)[O-])Oc1ccccc1C(=O)Oc1ccc(-c2cc(=S)ss2)cc1 [NOSH-1, 4-(3-thioxo-3H-1,2-dithiol-5-yl)phenyl 2-((4-(nitrooxy)butanoyl)oxy)benzoate] | – | 18.2±1.5% | 50.3±3.2% | 77.4±2.2% | 15.4±2.6% | 22.6±1.3% | 62.0±2.3% | 74.2±1.2% | 9.5±1.8% | 16.3±1.2 | 24.7±1.4% | 32.8±2.1% | 55.9±3.3% | 48±9 mm^3 | 55% | 0.21 ± 0.035 g | 98%
